The values below come from patent US11873299B1, “7-(4-((5-(4-chlorobenzylideneamino)-2-thioxo-1,3,4-thiadiazol-3(2H)-yl)methyl)iperazin-1-yl)-1-cyclopropyl-6-fluoro-4-oxo-1,4-dihydroquinoline-3-carboxylic acid as an anti-inflammatory compound” (KING FAISAL UNIVERSITY, priority 2023, dated 2024).

The structures appear in SMILES notation.

The target of series [1] is Bovine Serum Albumin (BSA) (Bos taurus, UniProt P02769). Put plainly: Bovine Serum Albumin Assay (BSA), inhibition of protein denaturation. To be noted: dilutions of 20, 40, 60, 80, and 100 μg/mL; 0.4% w/v BSA, pH 6.4; 72° C. for 10 minutes; turbidity at 660 nm. The class given is biochemical. On the procedure: Bovine Serum Albumin Assay (BSA)
Bovine Serum Albumin (BSA), sequence (P02769 25-607): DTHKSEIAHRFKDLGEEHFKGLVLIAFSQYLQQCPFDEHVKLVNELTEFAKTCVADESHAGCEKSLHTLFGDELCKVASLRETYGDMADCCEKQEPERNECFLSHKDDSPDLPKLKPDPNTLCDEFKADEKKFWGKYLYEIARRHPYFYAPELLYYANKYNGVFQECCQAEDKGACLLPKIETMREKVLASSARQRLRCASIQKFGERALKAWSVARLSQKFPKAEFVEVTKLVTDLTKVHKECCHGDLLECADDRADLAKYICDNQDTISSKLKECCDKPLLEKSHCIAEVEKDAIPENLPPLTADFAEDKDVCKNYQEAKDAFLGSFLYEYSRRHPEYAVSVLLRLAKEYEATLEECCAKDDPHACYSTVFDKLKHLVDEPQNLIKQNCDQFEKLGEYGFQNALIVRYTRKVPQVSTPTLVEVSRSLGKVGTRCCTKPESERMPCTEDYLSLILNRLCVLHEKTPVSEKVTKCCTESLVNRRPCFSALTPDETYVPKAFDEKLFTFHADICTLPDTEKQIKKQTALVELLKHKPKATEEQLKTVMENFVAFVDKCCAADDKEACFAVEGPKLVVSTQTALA
In vitro-inflammatory activities of the tested samples were determined using a modified method of the BSA assay reported by Williams et al. BSA solution (0.4%, w/v) was prepared in Tris Buffered Saline. The pH was adjusted to 6.4 with glacial acetic acid. Different dilutions of 20, 40, 60, 80, and 100 μg/mL of 7-(4-((5-(4-chlorobenzylideneamino)-2-thioxo-1,3,4-thiadiazol-3(2H)-yl)methyl)piperazin-1-yl)-1-cyclopropyl-6-fluoro-4-oxo-1,4-dihydroquinoline-3-carboxylic acid (IV) the stock solutions were added to test tubes containing 1 mL of 0.4%, w/v BSA buffer solution. Both negative (solvent) and positive (aspirin) controls were assayed in a similar manner. The solutions were then heated in a water bath at 72° C. for 10 minutes, and cooled for 20 minutes under laboratory conditions. The turbidity of the solutions (level of protein precipitation) was measured at 660 nm in Spectrophotometer (V-770 UV-Visible/NIR Spectrophotometer). The percentage inhibition of precipitation (protein denaturation) was determined relative to the negative control using the following equation:
[formula] % Anti-Denaturation Activity=% Inhibition of Protein Denaturation=% Anti-inflammatory Activity

Broadly, the melting point is the temperature of the solid-liquid transition. Take `O=C(O)c1cn(C2CC2)c2cc(N3CCN(Cn4nc(/N=C/c5ccc(Cl)cc5)sc4=S)CC3)c(F)cc2c1=O` [IV, 7-(4-((5-(4-chlorobenzylideneamino)-2-thioxo-1,3,4-thiadiazol-3(2H)-yl)methyl)piperazin-1-yl)-1-cyclopropyl-6-fluoro-4-oxo-1,4-dihydroquinoline-3-carboxylic acid]: the melting point fell in the range of 221 to 223 °C. In addition, in series [1], the “in vitro anti-inflammatory activity (inhibition of protein denaturation)” value is recorded as “considerable anti-inflammatory effect”.
